“And” between values parts separate entries of the source, which are not always exact repeats. Equal values may be shown once.
Tests used:
SfurOBP1 = SfurOBP1 (Sogatella furcifera, UniProt V5T8N5); assay: biochemical; type: binding; settings: for Fluorescence competitive binding assay, fluorescence intensity: OBP1, three replicate columns
Outline: (§1)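 1-NPN displacement assay with odorant competitor at 2–20 µM; protein and probe both 2.0 µM at pH 7.4. Ki is calculated from IC50 using the protein/1-NPN dissociation constant.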

SfurOBP11 = SfurOBP11 (Sogatella furcifera, UniProt V5T6E3); assay: biochemical; type: binding
Outline: as §1

SfurOBP2 = SfurOBP2 (Sogatella furcifera, UniProt V5T759); assay: biochemical; type: binding
Outline: as §1

SfurOBP3 = SfurOBP3 (Sogatella furcifera, UniProt V5T818); assay: biochemical; type: binding; settings: for Fluorescence competitive binding assay, fluorescence intensity: OBP3, three replicate columns
Outline: as §1

S. furcifera adults = assay: Y-tube olfactometer behavioral trials; type: in vivo, Sogatella furcifera; settings: odorant 50 µL/L vs hexane
Outline: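 Single S. furcifera adults (2 days post-emergence, starved 0.5 h) chose between odorant (100 µL of 50 µL/L on filter paper) and hexane control in a glass Y-tube, charcoal-filtered humidified air 300 mL/min per arm, 25 ± 1 °C, 50% RH. Choice scored if insect passed half an arm and stayed >1 min within 10 min; 45 insects per compound, chi-squared test.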

Sequence of SfurOBP3 (V5T818 entry or part of it): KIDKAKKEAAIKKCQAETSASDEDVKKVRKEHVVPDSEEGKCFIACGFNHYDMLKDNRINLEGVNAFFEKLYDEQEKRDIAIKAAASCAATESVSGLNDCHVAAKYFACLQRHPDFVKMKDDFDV
Sequence of SfurOBP11 (V5T6E3 entry or part of it): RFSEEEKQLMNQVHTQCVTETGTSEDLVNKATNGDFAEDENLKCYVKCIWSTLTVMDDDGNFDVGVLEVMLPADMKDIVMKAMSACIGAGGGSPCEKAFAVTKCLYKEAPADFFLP
Sequence of SfurOBP2 (V5T759 entry or part of it): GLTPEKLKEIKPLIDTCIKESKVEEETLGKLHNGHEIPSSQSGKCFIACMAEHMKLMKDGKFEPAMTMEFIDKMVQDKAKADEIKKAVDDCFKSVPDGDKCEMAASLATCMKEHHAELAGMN
Sequence of SfurOBP1 (V5T8N5 entry or part of it): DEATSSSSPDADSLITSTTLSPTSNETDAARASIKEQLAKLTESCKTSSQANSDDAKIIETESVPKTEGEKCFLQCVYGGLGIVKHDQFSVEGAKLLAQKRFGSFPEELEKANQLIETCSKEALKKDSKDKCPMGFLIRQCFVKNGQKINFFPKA

C=C/C(C)=C/C/C=C(\C)CCC=C(C)C [α-farnesene]
Fluorescence competitive binding assay, fluorescence intensity (SfurOBP1; ligand concentration 2 (μM)): 5991 and 6647 and 6019 | Fluorescence competitive binding assay, fluorescence intensity (SfurOBP1; ligand concentration 4 (μM)): 9444 and 9717 and 9590 | Fluorescence competitive binding assay, fluorescence intensity (SfurOBP1; ligand concentration 6 (μM)): 8928 and 9981 and 10192 | Fluorescence competitive binding assay, fluorescence intensity (SfurOBP1; ligand concentration 8 (μM)): 7764 and 12061 and 8808 | Fluorescence competitive binding assay, fluorescence intensity (SfurOBP1; ligand concentration 10 (μM)): 10672 and 12757 and 12848 | Fluorescence competitive binding assay, fluorescence intensity (SfurOBP1; ligand concentration 12 (μM)): 11226 and 16440 and 11668 | Fluorescence competitive binding assay, fluorescence intensity (SfurOBP1; ligand concentration 14 (μM)): 11457 and 12509 and 12654 | Fluorescence competitive binding assay, fluorescence intensity (SfurOBP1; ligand concentration 16 (μM)): 9720 and 12853 and 11395 | Fluorescence competitive binding assay, fluorescence intensity (SfurOBP1; ligand concentration 18 (μM)): 14020 and 17603 and 13863 | Fluorescence competitive binding assay, fluorescence intensity (SfurOBP1; ligand concentration 20 (μM)): 16799 and 14644 and 13556 | IC50 (SfurOBP1; SfurOBP1, protein and 1-NPN both 2.0 µM, competitor 2-20 µM, read-out: IC50): > 20 µM | IC50 (SfurOBP11; SfurOBP11, protein and 1-NPN both 2.0 µM, competitor 2-20 µM, read-out: IC50): > 20 µM | Fluorescence intensity, fluorescence competitive binding assay, OBP11 (SfurOBP11; ligand concentration 4, replicate 1): 32002 | Fluorescence intensity, fluorescence competitive binding assay, OBP11 (SfurOBP11; ligand concentration 6, replicate 1): 31916 | Fluorescence intensity, fluorescence competitive binding assay, OBP11 (SfurOBP11; ligand concentration 8, replicate 1): 31638 | Fluorescence intensity, fluorescence competitive binding assay, OBP11 (SfurOBP11; ligand concentration 8, replicate 2): 32522 | Fluorescence intensity, fluorescence competitive binding assay, OBP11 (SfurOBP11; ligand concentration 8, replicate 3): 31984 | Fluorescence intensity, fluorescence competitive binding assay, OBP11 (SfurOBP11; ligand concentration 10, replicate 1): 34517 | Fluorescence intensity, fluorescence competitive binding assay, OBP11 (SfurOBP11; ligand concentration 10, replicate 2): 33120 | Fluorescence intensity, fluorescence competitive binding assay, OBP11 (SfurOBP11; ligand concentration 10, replicate 3): 33819 | Fluorescence intensity, fluorescence competitive binding assay, OBP11 (SfurOBP11; ligand concentration 12, replicate 3): 31678 | Fluorescence intensity, fluorescence competitive binding assay, OBP11 (SfurOBP11; ligand concentration 14, replicate 1): 31889 | Fluorescence intensity, fluorescence competitive binding assay, OBP11 (SfurOBP11; ligand concentration 14, replicate 2): 31807 | Fluorescence intensity, fluorescence competitive binding assay, OBP11 (SfurOBP11; ligand concentration 14, replicate 3): 32302 | Fluorescence intensity, fluorescence competitive binding assay, OBP11 (SfurOBP11; ligand concentration 18, replicate 1): 36648 | Fluorescence intensity, fluorescence competitive binding assay, OBP11 (SfurOBP11; ligand concentration 18, replicate 2): 40474 | Fluorescence intensity, fluorescence competitive binding assay, OBP11 (SfurOBP11; ligand concentration 18, replicate 3): 36079 | Fluorescence intensity, fluorescence competitive binding assay, OBP11 (SfurOBP11; ligand concentration 20, replicate 1): 36041 | Fluorescence intensity, fluorescence competitive binding assay, OBP11 (SfurOBP11; ligand concentration 20, replicate 2): 35048 | Fluorescence intensity, fluorescence competitive binding assay, OBP11 (SfurOBP11; ligand concentration 20, replicate 3): 35313 | IC50 (SfurOBP2; SfurOBP2, protein and 1-NPN both 2.0 µM, competitor 2-20 µM, read-out: IC50): > 20 µM | Fluorescence competitive binding assay, OBP2 (raw fluorescence reading) (SfurOBP2; ligand concentration 2 (unit not given), replicate column 1 of 3): 15175 | Fluorescence competitive binding assay, OBP2 (raw fluorescence reading) (SfurOBP2; ligand concentration 2 (unit not given), replicate column 2 of 3): 15154 | Fluorescence competitive binding assay, OBP2 (raw fluorescence reading) (SfurOBP2; ligand concentration 2 (unit not given), replicate column 3 of 3): 16258 | Fluorescence competitive binding assay, OBP2 (raw fluorescence reading) (SfurOBP2; ligand concentration 4 (unit not given), replicate column 1 of 3): 15758 | Fluorescence competitive binding assay, OBP2 (raw fluorescence reading) (SfurOBP2; ligand concentration 4 (unit not given), replicate column 2 of 3): 17105 | Fluorescence competitive binding assay, OBP2 (raw fluorescence reading) (SfurOBP2; ligand concentration 4 (unit not given), replicate column 3 of 3): 16490 | Fluorescence competitive binding assay, OBP2 (raw fluorescence reading) (SfurOBP2; ligand concentration 6 (unit not given), replicate column 1 of 3): 15945 | Fluorescence competitive binding assay, OBP2 (raw fluorescence reading) (SfurOBP2; ligand concentration 6 (unit not given), replicate column 2 of 3): 16570 | Fluorescence competitive binding assay, OBP2 (raw fluorescence reading) (SfurOBP2; ligand concentration 6 (unit not given), replicate column 3 of 3): 19054 | Fluorescence competitive binding assay, OBP2 (raw fluorescence reading) (SfurOBP2; ligand concentration 8 (unit not given), replicate column 1 of 3): 15963 | Fluorescence competitive binding assay, OBP2 (raw fluorescence reading) (SfurOBP2; ligand concentration 8 (unit not given), replicate column 2 of 3): 18724 | Fluorescence competitive binding assay, OBP2 (raw fluorescence reading) (SfurOBP2; ligand concentration 8 (unit not given), replicate column 3 of 3): 18059 | Fluorescence competitive binding assay, OBP2 (raw fluorescence reading) (SfurOBP2; ligand concentration 10 (unit not given), replicate column 1 of 3): 16134 | Fluorescence competitive binding assay, OBP2 (raw fluorescence reading) (SfurOBP2; ligand concentration 10 (unit not given), replicate column 2 of 3): 18215 | Fluorescence competitive binding assay, OBP2 (raw fluorescence reading) (SfurOBP2; ligand concentration 10 (unit not given), replicate column 3 of 3): 19226 | Fluorescence competitive binding assay, OBP2 (raw fluorescence reading) (SfurOBP2; ligand concentration 12 (unit not given), replicate column 1 of 3): 15563 | Fluorescence competitive binding assay, OBP2 (raw fluorescence reading) (SfurOBP2; ligand concentration 12 (unit not given), replicate column 2 of 3): 19243 | Fluorescence competitive binding assay, OBP2 (raw fluorescence reading) (SfurOBP2; ligand concentration 12 (unit not given), replicate column 3 of 3): 19003 | Fluorescence competitive binding assay, OBP2 (raw fluorescence reading) (SfurOBP2; ligand concentration 14 (unit not given), replicate column 1 of 3): 19071 | Fluorescence competitive binding assay, OBP2 (raw fluorescence reading) (SfurOBP2; ligand concentration 14 (unit not given), replicate column 2 of 3): 18512 | Fluorescence competitive binding assay, OBP2 (raw fluorescence reading) (SfurOBP2; ligand concentration 14 (unit not given), replicate column 3 of 3): 18689 | Fluorescence competitive binding assay, OBP2 (raw fluorescence reading) (SfurOBP2; ligand concentration 16 (unit not given), replicate column 1 of 3): 17244 | Fluorescence competitive binding assay, OBP2 (raw fluorescence reading) (SfurOBP2; ligand concentration 16 (unit not given), replicate column 2 of 3): 19263 | Fluorescence competitive binding assay, OBP2 (raw fluorescence reading) (SfurOBP2; ligand concentration 16 (unit not given), replicate column 3 of 3): 18663 | Fluorescence competitive binding assay, OBP2 (raw fluorescence reading) (SfurOBP2; ligand concentration 18 (unit not given), replicate column 1 of 3): 23408 | Fluorescence competitive binding assay, OBP2 (raw fluorescence reading) (SfurOBP2; ligand concentration 18 (unit not given), replicate column 2 of 3): 23725 | Fluorescence competitive binding assay, OBP2 (raw fluorescence reading) (SfurOBP2; ligand concentration 18 (unit not given), replicate column 3 of 3): 20804 | Fluorescence competitive binding assay, OBP2 (raw fluorescence reading) (SfurOBP2; ligand concentration 20 (unit not given), replicate column 1 of 3): 16894 | Fluorescence competitive binding assay, OBP2 (raw fluorescence reading) (SfurOBP2; ligand concentration 20 (unit not given), replicate column 2 of 3): 20680 | Fluorescence competitive binding assay, OBP2 (raw fluorescence reading) (SfurOBP2; ligand concentration 20 (unit not given), replicate column 3 of 3): 19308 | Fluorescence competitive binding assay, fluorescence intensity (SfurOBP3; ligand concentration 2): 35042 and 35938 and 36236 | Fluorescence competitive binding assay, fluorescence intensity (SfurOBP3; ligand concentration 4): 33936 and 35041 and 36163 | Fluorescence competitive binding assay, fluorescence intensity (SfurOBP3; ligand concentration 6): 30371 and 31101 and 32222 | Fluorescence competitive binding assay, fluorescence intensity (SfurOBP3; ligand concentration 8): 32781 and 31040 and 32847 | Fluorescence competitive binding assay, fluorescence intensity (SfurOBP3; ligand concentration 10): 31032 and 32369 and 33307 | Fluorescence competitive binding assay, fluorescence intensity (SfurOBP3; ligand concentration 12): 29013 and 34433 and 32292 | Fluorescence competitive binding assay, fluorescence intensity (SfurOBP3; ligand concentration 14): 31092 and 30872 and 34922 | Fluorescence competitive binding assay, fluorescence intensity (SfurOBP3; ligand concentration 16): 33838 and 32037 and 30214 | Fluorescence competitive binding assay, fluorescence intensity (SfurOBP3; ligand concentration 18): 37931 and 38340 and 38776 | Fluorescence competitive binding assay, fluorescence intensity (SfurOBP3; ligand concentration 20): 37363 and 39141 and 38102 | binding affinity to SfurOBP3 (in words) (SfurOBP3; SfurOBP3): high binding affinities | IC50 (SfurOBP3; SfurOBP3, protein and 1-NPN both 2.0 µM, competitor 2-20 µM, read-out: IC50): > 20 µM | behavioral response of S. furcifera (in words) (S. furcifera adults): strongly attracted | number of insects choosing hexane arm (S. furcifera adults; adults): 10 | number of insects choosing volatilies arm (S. furcifera adults; adults): 25 | number of insects failed (no choice) (S. furcifera adults; adults): 5

Source: PMC6409085, “Three odorant-binding proteins are involved in the behavioral response of Sogatella furcifera to rice plant volatiles” (PeerJ, 2019)
